Measurements from US20130267494A1, “1,4-OXAZEPANE DERIVATIVES” (priority 2010, published 2013).
Structures can show the parent of a compound that is named as a salt. Where two headings read alike, the source gives them in different places.

How the values were obtained:
[1] = target: T1, human norepinephrine transporter (Homo sapiens, UniProt P23975); experiment: Inhibitory action on human norepinephrine transporter ([3H]-norepinephrine uptake in CHO cells); format: cell-based; settings: CHO, relative to inhibitory activity of 10 μM DMI as 100%
T1 construct: expressed in transfected cells
T1 sequence (P23975 whole entry): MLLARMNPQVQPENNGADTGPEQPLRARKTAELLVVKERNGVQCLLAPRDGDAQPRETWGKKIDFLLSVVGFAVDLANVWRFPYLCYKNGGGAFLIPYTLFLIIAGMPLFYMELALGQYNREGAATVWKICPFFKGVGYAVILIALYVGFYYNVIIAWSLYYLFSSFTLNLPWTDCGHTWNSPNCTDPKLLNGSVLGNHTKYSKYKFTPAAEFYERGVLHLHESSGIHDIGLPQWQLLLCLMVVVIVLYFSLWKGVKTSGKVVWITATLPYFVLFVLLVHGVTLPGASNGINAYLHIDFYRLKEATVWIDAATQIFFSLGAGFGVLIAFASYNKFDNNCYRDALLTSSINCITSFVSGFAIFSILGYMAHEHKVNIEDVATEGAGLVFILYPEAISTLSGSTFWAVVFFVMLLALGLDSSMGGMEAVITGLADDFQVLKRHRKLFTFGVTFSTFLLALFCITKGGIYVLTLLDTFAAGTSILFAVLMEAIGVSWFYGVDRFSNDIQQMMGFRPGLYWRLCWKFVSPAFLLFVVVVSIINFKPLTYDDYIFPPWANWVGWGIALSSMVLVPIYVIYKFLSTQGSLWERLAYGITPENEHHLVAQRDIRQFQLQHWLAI
Summary of the method: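 Stably transfected CHO-K1 cells plated overnight, then given test compound and [3H]-norepinephrine (20 nM final, from 200 nM) in HEPES-buffered saline with 0.5% BSA for 45 min. After PBS washes, retained radioactivity counted by scintillation. Inhibition at 10 μM or 1 μM compound expressed relative to 10 μM DMI as 100%.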

[2] = target: T2, human serotonin transporter (Homo sapiens, UniProt P31645); experiment: Inhibitory action on human serotonin transporter ([3H]-5-hydroxytryptamine uptake in CHO cells); format: cell-based; settings: CHO, relative to inhibitory activity of 10 μM Paroxetine as 100%, read-out: inhibitory rate (%); for inhibition at 1 µM: compound 1 μM
T2 construct: expressed in transfected cells
T2 sequence (P31645 whole entry): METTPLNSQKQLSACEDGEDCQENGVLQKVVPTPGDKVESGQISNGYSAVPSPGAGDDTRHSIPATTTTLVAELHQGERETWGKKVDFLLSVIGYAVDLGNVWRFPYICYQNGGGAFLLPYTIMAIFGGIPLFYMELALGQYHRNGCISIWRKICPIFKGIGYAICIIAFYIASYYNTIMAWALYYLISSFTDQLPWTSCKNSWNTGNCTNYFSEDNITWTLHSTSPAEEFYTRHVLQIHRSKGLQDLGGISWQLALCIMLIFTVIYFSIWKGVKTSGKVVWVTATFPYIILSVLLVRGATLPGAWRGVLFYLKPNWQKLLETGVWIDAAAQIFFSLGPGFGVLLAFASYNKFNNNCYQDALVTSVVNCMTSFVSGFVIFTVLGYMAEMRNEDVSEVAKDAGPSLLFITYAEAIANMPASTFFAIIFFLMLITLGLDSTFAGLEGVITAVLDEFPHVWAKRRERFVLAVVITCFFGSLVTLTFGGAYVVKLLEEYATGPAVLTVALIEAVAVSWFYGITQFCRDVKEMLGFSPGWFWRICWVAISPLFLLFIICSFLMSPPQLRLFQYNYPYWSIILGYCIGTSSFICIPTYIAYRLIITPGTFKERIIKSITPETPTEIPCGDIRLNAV
Summary of the method: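 CHO-K1 cells stably expressing human SERT, plated overnight, took up [3H]-5-HT (diluted to 200 nM before a 1:10 addition) for 20 min in HEPES-buffered saline with glucose and 0.5% BSA; radioactivity counted by scintillation. Compounds at 10 μM or 1 μM, activity expressed relative to 10 μM paroxetine set as 100%.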

[3] = compound 1 μM, read-out: inhibitory rate (%)
[4] = read-out: inhibitory rate (%), compound 1 μM

Structure (SMILES) | inhibition at 1 µM [1, 3] | inhibition at 1 µM [2] | inhibition at 1 µM [1, 4] | inhibition at 10 µM ([1]; read-out: inhibitory rate (%), compound 10 μM) | inhibition at 10 µM ([2]; compound 10 μM, CHO cells expressing human serotonin transporter)
COCC(=O)NC[C@@H]1CNCCO[C@H]1c1ccc(Cl)c(Cl)c1 [Example 33, N-{[(6S,7R)-7-(3,4-dichlorophenyl)-1,4-oxazepan-6-yl]methyl}-2-methoxyacetamide monohydrochloride] | 100% | 92% | – | – | –
O=c1[nH]c(-c2cccn(C[C@@H]3CNCCO[C@H]3c3ccc(Cl)c(F)c3)c2=O)no1 [Example 43, 1-{[(6S,7R)-7-(4-chloro-3-fluorophenyl)-1,4-oxazepan-6-yl]methyl}-3-(5-oxo-4,5-dihydro-1,2,4-oxadiazol-3-yl)pyridin-2(1H)-one monohydrochloride] | – | 72% | 102% | – | –
OC[C@H](O)[C@@H]1OCCNC[C@H]1c1ccc(Cl)c(Cl)c1 [Example 45, (1S)-1-[(6R,7R)-6-(3,4-dichlorophenyl)-1,4-oxazepan-7-yl]ethane-1,2-diol monohydrochloride] | 105% | 36% | – | – | –
O=C(O)c1cccn(C[C@@H]2CNCCO[C@H]2c2ccc(Cl)c(F)c2)c1=O [Example 44, 1-{[(6S,7R)-7-(4-chloro-3-fluorophenyl)-1,4-oxazepan-6-yl]methyl}-2-oxo-1,2-dihydropyridine-3-carboxylic acid monohydrochloride] | 102% | 40% | – | – | –
CC(=O)NC[C@@H]1CNCCO[C@H]1c1ccc(Cl)c(Cl)c1 [Example 32, N-{[(6S,7R)-7-(3,4-dichlorophenyl)-1,4-oxazepan-6-yl]methyl}acetamide 0.5 fumarate] | – | 84% | 93% | – | –
[2H]C([2H])([2H])OCC(=O)NC[C@@H]1CNCCO[C@H]1c1ccc(Cl)c(F)c1 [Example 39, N-{[(6S,7R)-7-(4-chloro-3-fluorophenyl)-1,4-oxazepan-6-yl]methyl}-2-[(^2H3)methyloxy]acetamide monohydrochloride] | 102% | 58% | – | – | –
CC(C)OCC(=O)NC[C@@H]1CNCCO[C@H]1c1ccc(Cl)c(F)c1 [Example 41, N-{[(6S,7R)-7-(4-chloro-3-fluorophenyl)-1,4-oxazepan-6-yl]methyl}-2-(1-methylethoxy)acetamide monohydrochloride] | 101% | 70% | – | – | –
CC(=O)N[C@@H]1CNCCO[C@H]1c1ccc(Cl)c(Cl)c1 [Example 36, N-[(6R,7S)-7-(3,4-dichlorophenyl)-1,4-oxazepan-6-yl]acetamide monofumarate] | – | 69% | 101% | – | –
CC(=O)NC[C@H]1CNCCO[C@@H]1c1ccc(Cl)c(Cl)c1 (racemic) [Example 6, N-{[(6RS,7SR)-7-(3,4-dichlorophenyl)-1,4-oxazepan-6-yl]methyl}acetamide monohydrochloride] | – | 84% | 95% | 97% | 98%
NS(=O)(=O)N[C@@H]1CNCCO[C@H]1c1ccc(Cl)c(Cl)c1 [Example 37, N-[(6R,7S)-7-(3,4-dichlorophenyl)-1,4-oxazepan-6-yl]sulfamide monohydrochloride] | 102% | 71% | – | – | –

Now from value to compound, other results behind:

inhibition at 1 µM [1, 3] | inhibition at 1 µM [2] | Structure (SMILES) | inhibition at 1 µM [1, 4] | inhibition at 10 µM ([1]; read-out: inhibitory rate (%), compound 10 μM) | inhibition at 10 µM ([2]; compound 10 μM, CHO cells expressing human serotonin transporter)
101% | 77% | O=c1[nH]c(-c2cccnc2O[C@@H]2CNCCO[C@H]2c2ccc(Cl)c(F)c2)no1 [Example 556, 3-(2-{[(6R,7S)-7-(4-chloro-3-fluorophenyl)-1,4-oxazepan-6-yl]oxy}pyridin-3-yl)-1,2,4-oxadiazol-5(4H)-one monohydrochloride] | – | – | –
104% | 80% | CCOCC(=O)NC[C@@H]1CNCCO[C@H]1c1ccc(Cl)c(F)c1 [Example 40, N-{[(6S,7R)-7-(4-chloro-3-fluorophenyl)-1,4-oxazepan-6-yl]methyl}-2-ethoxyacetamide monohydrochloride] | – | – | –
107% | 41% | O=c1[nH]c(-c2ncccc2O[C@@H]2CNCCO[C@H]2c2ccc(Cl)c(F)c2)no1 [Example 584, 3-(3-{[(6R, 7S)-7-(4-chloro-3-fluorophenyl)-1,4-oxazepan-6-yl]oxy}pyridin-2-yl)-1,2,4-oxadiazol-5(4H)-one] | – | – | –
102% | 69% | COCC(=O)NC[C@@H]1CNCCO[C@H]1c1ccc(Cl)c(F)c1 [Example 38, N-{[(6S,7R)-7-(4-chloro-3-fluorophenyl)-1,4-oxazepan-6-yl]methyl}-2-methoxyacetamide monohydrochloride] | – | – | –
97% | 53% | O=c1[nH]c(-c2ccccc2O[C@@H]2CNCCO[C@H]2c2ccc(Cl)c(F)c2)no1 [Example 577, 3-(2-{[(6R, 7S)-7-(4-chloro-3-fluoro-phenyl)-1,4-oxazepan-6-yl]oxy}phenyl)-1,2,4-oxadiazol-5(4H)-one] | – | – | –
108% | 95% | O=c1[nH]c(-c2cccn(C[C@@H]3CNCCO[C@H]3c3ccc(Cl)c(Cl)c3)c2=O)no1 [Example 31, 1-{[(6S,7R)-7-(3,4-dichlorophenyl)-1,4-oxazepan-6-yl]methyl}-3-(5-oxo-4,5-dihydro-1,2,4-oxadiazol-3-yl)pyridin-2(1H)-one monohydrochloride] | – | – | –
